Test results from patent publication US9839708B2, “Method for treating used absorbent article” (Unicharm Corporation, priority 2012, dated 2017).

Assays:
Escherichia coli = experiment: Evaluation of bactericidal function (MIC / minimum bactericidal concentration); type: cell-based; design: key: −: exhibited effects of bactericidal action; +: with the exception of the results of Comparative Examples 1 and 2; details: at the concentration used in the example; absence of growth 24 hours later
Method: (§1) Minimum inhibitory concentration (MIC) of the acidic electrolyzed water was measured based on the standard test method of the Japanese Society of Chemotherapy followed by confirming the absence of growth 24 hours later to evaluate the minimum bactericidal concentration and determine if bactericidal effects are present at the concentration used in the example. Minimum inhibitory concentrations (MIC) of the alkaline electrolyzed water and acidic electrolyzed water were respectively measured based on the standard test method of the Japanese Society of Chemotherapy followed by confirming the absence of growth 24 hours later to evaluate the minimum bactericidal concentration and determine if bactericidal effects are present at the concentration used in Example 2-2. Minimum inhibitory concentrations (MIC) of the acidic electrolyzed water and alkaline electrolyzed water were respectively measured based on the standard test method of the Japanese Society of Chemotherapy followed by confirming the absence of growth 24 hours later to evaluate the minimum bactericidal concentration and determine if bactericidal effects are present at the concentration used in Example 3-2. Minimum inhibitory concentration (MIC) of the tap water was measured based on the standard test method of the Japanese Society of Chemotherapy followed by confirming the absence of growth 24 hours later to evaluate the minimum bactericidal concentration and determine if bactericidal effects are present at the concentration used in the example. Minimum inhibitory concentrations (MIC) of the alkaline electrolyzed water was measured based on the standard test method of the Japanese Society of Chemotherapy followed by confirming the absence of growth 24 hours later to evaluate the minimum bactericidal concentration and determine if bactericidal effects are present at the concentration used in Comparative Example 2-2. Minimum inhibitory concentration (MIC) of the 250 ppm sodium hypochlorite was measured based on the standard test method of the Japanese Society of Chemotherapy followed by confirming the absence of growth 24 hours later to evaluate the minimum bactericidal concentration and determine if bactericidal effects are present at the concentration used in Comparative Example 3-2. Minimum inhibitory concentration (MIC) of the 500 ppm sodium hypochlorite was measured based on the standard test method of the Japanese Society of Chemotherapy followed by confirming the absence of growth 24 hours later to evaluate the minimum bactericidal concentration and determine if bactericidal effects are present at the concentration used in Comparative Example 4-2. Minimum inhibitory concentration (MIC) of the 1000 ppm sodium hypochlorite was measured based on the standard test method of the Japanese Society of Chemotherapy followed by confirming the absence of growth 24 hours later to evaluate the minimum bactericidal concentration and determine if bactericidal effects are present at the concentration used in Comparative Example 4-2.

Staphylococcus aureus = experiment: as above; type: cell-based; design: key: −: exhibited effects of bactericidal action; +: with the exception of the results of Comparative Examples 1 and 2; details: at the concentration used in the example; absence of growth 24 hours later
Method: as §1

[1] = Residual chlorine concentration of recycled pulp (JIS K 0102 33.2); type: physicochemical; details: 5.00 g eluted into 100 ml, criterion Less than 1 ppm
Method: (§2) Eight commercially available disposable diapers (Moony M Size, Unicharm Corp.) that had adsorbed 200 ml of physiological saline were placed in a twin tub compact washing machine (Harebare AST-01, Alumis Co., Ltd.). 80 g of CaO (Wako Pure Chemical Industries, Ltd.) were placed in the washing tub followed by the addition of 6.5 L of acidic electrolyzed water (pH 3, generated with the ESS-ZERO Electrolyzed Water Sanitation System manufactured by Tech Corp.). After washing for 15 minutes, the liquid inside the washing tub was discharged followed by newly adding 6.5 L of acidic electrolyzed water (pH 3, formed with the ESS-ZERO Electrolyzed Water Sanitation System manufactured by Tech Corp.). After washing for 15 minutes, only the pulp that floated in the liquid in the washing tub was skimmed off followed by placing in a mesh pouch (measuring 25 cm on a side, N-No. 250HD, NBC Meshtec Inc.) and dehydrating for 5 minutes in the spin tub (dehydrator). The recycled pulp was rinsed for 15 minutes with running water (tap water) while still in the mesh pouch followed by again dehydrating for 5 minutes in the spin tub (dehydrator). The pulp was then dried for 24 hours with a hot air dryer at 105° C. Recycled pulp was obtained according to the aforementioned method.
5.00 g of pulp dried in the same manner as described above were eluted into 100 ml of physiological saline followed by measurement of the chlorine concentration thereof (JIS K 0102 33.2).
(§3) Eight commercially available disposable diapers (Moony M Size, Unicharm Corp.) that had adsorbed 200 ml of physiological saline were placed in a twin tub compact washing machine (Harebare AST-01, Alumis Co., Ltd.). 80 g of CaO (Wako Pure Chemical Industries, Ltd.) were placed in the washing tub followed by the addition of 6.5 L of alkaline electrolyzed water (pH 12, generated with the ESS-ZERO Electrolyzed Water Sanitation System manufactured by Tech Corp.). […]

[2] = Evaluation of pH of recycled pulp; type: physicochemical; details: 1.00 g dried pulp in 10 ml physiological saline; criterion pH 3.1-9.8
Method: as §2
1.00 g of the dried pulp was weighed out into a beaker followed by the addition of 10 ml of physiological saline. After gently stirring with a glass rod, the pulp was allowed to stand undisturbed for 10 minutes followed by measurement of the liquid inside the beaker with a pH meter (AS-212, As One Corp.).
as §3

Row | SMILES | Bactericidal Effect E. coli (Escherichia coli) | Bactericidal Effect S. aureus (Staphylococcus aureus) | Residual Chlorine ppm [1] | pH of Recycled Pulp [2]
1 | [Na+].[O-]Cl [compound 4, sodium hypochlorite] | − | − | 1 ppm | 12.2
2 | OCl [compound 3, sodium hypochlorite] | − | − | 1 ppm | 12.3
3 | OCl [compound 5, sodium hypochlorite] | − | − | 1 ppm | 12.0
